Reference: the supplement of paper PMC8671470
Where a name gives a salt, the structure may show the parent alone.

These compounds were tested on MV4-11 (assay: cell viability (% survival relative to DMSO control, bortezomib = 0%); higher = less cytotoxic). Conditions: 10 nM; 72 h.
Method in brief: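 Fifteen myeloid leukaemia cell lines were exposed to compounds at 1, 10, 100, 1000 or 10000 nM in 384-well plates for 72 h at 37 °C and 5% CO2. Viability was read by CellTiter-Glo luminescence and normalised, with vehicle as 100% and a 10 µM positive control as 0%. Values are percent survival averaged over duplicates.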
Compound CCc1oc2ccccc2c1C(=O)c1cc(Br)c(O)c(Br)c1 [Benzbromarone] has a cell viability of 100%. For CCOC(=O)c1sc(NC(=O)c2ccco2)c(SC#N)c1C [CBR-5884], the cell viability was 96.3%. CCCCCOC(=O)Nc1nc(=O)n([C@@H]2O[C@H](C)[C@@H](O)[C@H]2O)cc1F [Capecitabine] was tested, and the cell viability was 90.8%. Cc1ccc(-c2cc(C(F)(F)F)nn2-c2ccc(S(N)(=O)=O)cc2)cc1 [Celecoxib] showed a cell viability of 96.4%. Work on O=c1c(-c2ccc(O)cc2)coc2cc(O[C@@H]3O[C@H](CO)[C@@H](O)[C@H](O)[C@H]3O)ccc12 [Daidzin] yielded a cell viability of 84%. In the case of C[C@H]1c2cccc(O)c2C(=O)C2C(=O)[C@]3(O)C(=O)C(C(N)=O)C(=O)[C@@H](N(C)C)[C@@H]3[C@@H](O)[C@@H]21 (stereo not given in full) [Doxycycline], the cell viability is reported as 105%. Compound OC[C@H]1NC[C@H](O)[C@@H](O)[C@@H]1O [Duvoglustat] has a cell viability of 108%. For O=C(NCCN1CCC(n2c(O)nc3ccccc32)CC1)c1cc2cc(F)ccc2[nH]1 [FIPI], the cell viability was 88.1%. Compound CCN(CCO)CCCC(C)Nc1ccnc2cc(Cl)ccc12 (stereo not given) [Hydroxychloroquine sulfate] has a cell viability of 112%. O=C([O-])CC(O)(C(=O)[O-])C(O)C(=O)[O-].[K+].[K+].[K+] (stereo not given) [Hydroxycitrate] was tested, and the cell viability was 107%. Compound CCCCCN(C)CCC(O)(P(=O)(O)O)P(=O)(O)O [Ibandronate] has a cell viability of 90.5%. With Cc1cc(C(=O)NNCc2ccccc2)no1 [Isocarboxazid] the cell viability was 95%. In the case of CCn1c(=Cc2cccc[n+]2CC)sc(=C2Sc3ccccc3N2C)c1=O [MKT 077], the cell viability is reported as 99.9%. For COC(=O)c1cc2c(C(F)(F)F)cc(-c3ccccc3)cc2n1O [NHI-2], the cell viability was 91.1%. Compound CCCCCCCC/C=C\CCCCCCCC(=O)Nc1ccccc1 [Octadec-9-Enoic Acid Phenylamide] has a cell viability of 100%. With CC[C@H](C)[C@H](N)C(=O)N1CCSC1 [P32/98] the cell viability was 110%. With OC[C@H]1O[C@@H](n2cnc3c2N=CNC[C@H]3O)C[C@@H]1O [Pentostatin] the cell viability was 104%. With CC(C)CC(=O)N[C@H](C(=O)N[C@H](C(=O)N[C@@H](CC(C)C)[C@@H](O)CC(=O)N[C@@H](C)C(=O)N[C@@H](CC(C)C)[C@@H](O)CC(=O)O)C(C)C)C(C)C [Pepstatin A] the cell viability was 77.9%. For Cc1cccc(Nc2cc(Cl)nc(SCC(=O)O)n2)c1C [Pirinixic acid], the cell viability was 90.7%. With C[C@]12C=CC(=O)C=C1CC[C@@H]1[C@@H]2[C@@H](O)C[C@@]2(C)[C@H]1CC[C@]2(O)C(=O)CO [Prednisolone] the cell viability was 110%. N[C@@H](CC(=O)N1CCn2c(nnc2C(F)(F)F)C1)Cc1cc(F)c(F)cc1F [Sitagliptin] gave a cell viability of 102%. CCCc1nc(C)c2c(=O)nc(-c3cc(S(=O)(=O)N4CCN(CC)CC4)ccc3OCC)[nH]n12 [Vardenafil] showed a cell viability of 87.5%. In the case of CCc1c(C(=O)C(N)=O)c2c(OCC(=O)O)cccc2n1Cc1ccccc1 [Varespladib], the cell viability is reported as 109%. Compound N#Cc1ccc(N(Cc2ccc(Br)cc2)n2cnnc2)cc1 [YM511] has a cell viability of 93.6%. Compound N#C/C(=C\c1ccc(O)cc1)C(=O)O [alpha-cyano-4-hydroxycinnamic acid] has a cell viability of 95.3%.

Same assay, conditions: 100 nM; 72 h
In the case of CN(CCCOc1ccc(Cc2ccccc2)cc1)CCC(=O)O, the cell viability is reported as 96%. COc1ccc2c(NC(=O)Nc3cccc(C(F)(F)F)n3)ccnc2c1 gave a cell viability of 101%. Work on Cc1nc(-c2ccccc2)sc1C(=O)Nc1ccc(S(N)(=O)=O)cc1 yielded a cell viability of 105%. C=CC(=O)c1ccc(O)cc1 [4-Acryloylphenol] gave a cell viability of 94.3%. O=c1cc(-c2ccccc2)oc2c1ccc1ccccc12 [Alpha-Naphtoflavone] showed a cell viability of 107%. Cc1c(Cl)cccc1S(=O)(=O)Nc1nc(CC(=O)N2CCN(C)CC2)cs1 [BVT-2733] gave a cell viability of 88.3%. With CCc1oc2ccccc2c1C(=O)c1cc(Br)c(O)c(Br)c1 [Benzbromarone] the cell viability was 97%. Compound CCOC(=O)c1sc(NC(=O)c2ccco2)c(SC#N)c1C [CBR-5884] has a cell viability of 116%. For CCCCCOC(=O)Nc1nc(=O)n([C@@H]2O[C@H](C)[C@@H](O)[C@H]2O)cc1F [Capecitabine], the cell viability was 110%. Cc1ccc(-c2cc(C(F)(F)F)nn2-c2ccc(S(N)(=O)=O)cc2)cc1 [Celecoxib] gave a cell viability of 83.7%. With O=c1c(-c2ccc(O)cc2)coc2cc(O[C@@H]3O[C@H](CO)[C@@H](O)[C@H](O)[C@H]3O)ccc12 [Daidzin] the cell viability was 106%. C[C@H]1c2cccc(O)c2C(=O)C2C(=O)[C@]3(O)C(=O)C(C(N)=O)C(=O)[C@@H](N(C)C)[C@@H]3[C@@H](O)[C@@H]21 (stereo not given in full) [Doxycycline] gave a cell viability of 94.2%. For OC[C@H]1NC[C@H](O)[C@@H](O)[C@@H]1O [Duvoglustat], the cell viability was 92.8%. With O=C(NCCN1CCC(n2c(O)nc3ccccc32)CC1)c1cc2cc(F)ccc2[nH]1 [FIPI] the cell viability was 100%. Compound CCN(CCO)CCCC(C)Nc1ccnc2cc(Cl)ccc12 (stereo not given) [Hydroxychloroquine sulfate] has a cell viability of 93.2%. In the case of O=C([O-])CC(O)(C(=O)[O-])C(O)C(=O)[O-].[K+].[K+].[K+] (stereo not given) [Hydroxycitrate], the cell viability is reported as 111%. In the case of CCCCCN(C)CCC(O)(P(=O)(O)O)P(=O)(O)O [Ibandronate], the cell viability is reported as 104%. Compound Cc1cc(C(=O)NNCc2ccccc2)no1 [Isocarboxazid] has a cell viability of 97.5%. CCn1c(=Cc2cccc[n+]2CC)sc(=C2Sc3ccccc3N2C)c1=O [MKT 077] gave a cell viability of 109%. COC(=O)c1cc2c(C(F)(F)F)cc(-c3ccccc3)cc2n1O [NHI-2] was tested, and the cell viability was 91.2%. In the case of CCCCCCCC/C=C\CCCCCCCC(=O)Nc1ccccc1 [Octadec-9-Enoic Acid Phenylamide], the cell viability is reported as 108%. Compound CC[C@H](C)[C@H](N)C(=O)N1CCSC1 [P32/98] has a cell viability of 106%. Work on OC[C@H]1O[C@@H](n2cnc3c2N=CNC[C@H]3O)C[C@@H]1O [Pentostatin] yielded a cell viability of 107%. For CC(C)CC(=O)N[C@H](C(=O)N[C@H](C(=O)N[C@@H](CC(C)C)[C@@H](O)CC(=O)N[C@@H](C)C(=O)N[C@@H](CC(C)C)[C@@H](O)CC(=O)O)C(C)C)C(C)C [Pepstatin A], the cell viability was 90%. Cc1cccc(Nc2cc(Cl)nc(SCC(=O)O)n2)c1C [Pirinixic acid] gave a cell viability of 102%. C[C@]12C=CC(=O)C=C1CC[C@@H]1[C@@H]2[C@@H](O)C[C@@]2(C)[C@H]1CC[C@]2(O)C(=O)CO [Prednisolone] showed a cell viability of 143%. N[C@@H](CC(=O)N1CCn2c(nnc2C(F)(F)F)C1)Cc1cc(F)c(F)cc1F [Sitagliptin] gave a cell viability of 99.3%. Compound CCCc1nc(C)c2c(=O)nc(-c3cc(S(=O)(=O)N4CCN(CC)CC4)ccc3OCC)[nH]n12 [Vardenafil] has a cell viability of 85.2%. Work on CCc1c(C(=O)C(N)=O)c2c(OCC(=O)O)cccc2n1Cc1ccccc1 [Varespladib] yielded a cell viability of 101%. N#Cc1ccc(N(Cc2ccc(Br)cc2)n2cnnc2)cc1 [YM511] gave a cell viability of 115%. Compound N#C/C(=C\c1ccc(O)cc1)C(=O)O [alpha-cyano-4-hydroxycinnamic acid] has a cell viability of 95.7%.

Same assay, conditions: 1000 nM; 72 h
Work on CN(CCCOc1ccc(Cc2ccccc2)cc1)CCC(=O)O yielded a cell viability of 125%. COc1ccc2c(NC(=O)Nc3cccc(C(F)(F)F)n3)ccnc2c1 was tested, and the cell viability was 85.7%. Cc1nc(-c2ccccc2)sc1C(=O)Nc1ccc(S(N)(=O)=O)cc1 showed a cell viability of 105%. C=CC(=O)c1ccc(O)cc1 [4-Acryloylphenol] showed a cell viability of 137%. O=c1cc(-c2ccccc2)oc2c1ccc1ccccc12 [Alpha-Naphtoflavone] was tested, and the cell viability was 89.6%. Work on Cc1c(Cl)cccc1S(=O)(=O)Nc1nc(CC(=O)N2CCN(C)CC2)cs1 [BVT-2733] yielded a cell viability of 108%. Work on CCc1oc2ccccc2c1C(=O)c1cc(Br)c(O)c(Br)c1 [Benzbromarone] yielded a cell viability of 91.2%. CCOC(=O)c1sc(NC(=O)c2ccco2)c(SC#N)c1C [CBR-5884] was tested, and the cell viability was 88.3%. CCCCCOC(=O)Nc1nc(=O)n([C@@H]2O[C@H](C)[C@@H](O)[C@H]2O)cc1F [Capecitabine] was tested, and the cell viability was 103%. Cc1ccc(-c2cc(C(F)(F)F)nn2-c2ccc(S(N)(=O)=O)cc2)cc1 [Celecoxib] gave a cell viability of 110%. Work on O=c1c(-c2ccc(O)cc2)coc2cc(O[C@@H]3O[C@H](CO)[C@@H](O)[C@H](O)[C@H]3O)ccc12 [Daidzin] yielded a cell viability of 133%. Work on C[C@H]1c2cccc(O)c2C(=O)C2C(=O)[C@]3(O)C(=O)C(C(N)=O)C(=O)[C@@H](N(C)C)[C@@H]3[C@@H](O)[C@@H]21 (stereo not given in full) [Doxycycline] yielded a cell viability of 97%. Compound OC[C@H]1NC[C@H](O)[C@@H](O)[C@@H]1O [Duvoglustat] has a cell viability of 92.6%. O=C(NCCN1CCC(n2c(O)nc3ccccc32)CC1)c1cc2cc(F)ccc2[nH]1 [FIPI] showed a cell viability of 94.6%. CCN(CCO)CCCC(C)Nc1ccnc2cc(Cl)ccc12 (stereo not given) [Hydroxychloroquine sulfate] showed a cell viability of 102%. Compound O=C([O-])CC(O)(C(=O)[O-])C(O)C(=O)[O-].[K+].[K+].[K+] (stereo not given) [Hydroxycitrate] has a cell viability of 106%. Work on CCCCCN(C)CCC(O)(P(=O)(O)O)P(=O)(O)O [Ibandronate] yielded a cell viability of 86.6%. Compound Cc1cc(C(=O)NNCc2ccccc2)no1 [Isocarboxazid] has a cell viability of 81.4%. CCn1c(=Cc2cccc[n+]2CC)sc(=C2Sc3ccccc3N2C)c1=O [MKT 077] gave a cell viability of 104%.
